This note sets out measurements from article PMC5706701, “Development of a homogenous high-throughput assay for inositol hexakisphosphate kinase 1 activity” (PLoS ONE, 2017).

Counter-ions that a name gives are not always drawn. Like-named read-outs stand apart in the source and are kept apart here.

For this assay, the target named is T1, Human IP6K1 (Homo sapiens, UniProt Q92551).
T1 construct: GST (N, cleaved yes); made in house; host or cells: C43 E. coli, pGEX-6P-2
As to the kind of experiment: IP6K1 high-throughput screen of the Sigma LOPAC (ADP-Glo Max, single point).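 Further: final compound concentration 10µM in 5% DMSO.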 It is filed as biochemical. (In ADP-Glo the light output rises with the ADP produced.)

[1] abbreviates: Sigma LOPAC single-point screen, ADP-Glo Max raw signal per well.
Setting [2] is: Sigma LOPAC single-point screen, Z-score from plate average and StDev.
Where [3] appears, read: LOPAC single-point screen, ADP-Glo Max raw signal per well.
Setting [4] is: LOPAC single-point screen, Z-score from raw signal with plate average and StDev.
The mark [5] stands for this setting: LOPAC single-point screen, Z-score against plate average and StDev.
The mark [6] stands for this setting: LOPAC single-point screen, ADP-Glo Max luminescence raw signal per well.
[7] abbreviates: LOPAC single-point screen, Z-score relative to plate average and StDev.
Where [8] appears, read: LOPAC single-point screen, Z-score from plate average and StDev.

T1 sequence (Q92551 whole entry): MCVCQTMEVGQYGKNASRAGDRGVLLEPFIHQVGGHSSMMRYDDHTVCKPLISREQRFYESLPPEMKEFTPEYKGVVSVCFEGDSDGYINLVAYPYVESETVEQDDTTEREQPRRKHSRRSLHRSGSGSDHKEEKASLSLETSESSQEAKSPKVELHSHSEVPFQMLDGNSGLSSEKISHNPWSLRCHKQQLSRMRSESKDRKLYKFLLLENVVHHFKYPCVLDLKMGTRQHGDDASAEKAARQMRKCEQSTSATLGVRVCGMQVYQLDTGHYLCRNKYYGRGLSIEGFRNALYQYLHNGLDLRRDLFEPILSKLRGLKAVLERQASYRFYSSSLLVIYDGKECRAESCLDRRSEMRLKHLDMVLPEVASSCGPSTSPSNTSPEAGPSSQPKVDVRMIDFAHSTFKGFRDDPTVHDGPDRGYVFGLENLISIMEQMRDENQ

Take `C[C@H](O)C(=O)C1=Nc2c(nc(N)[nH]c2=O)NC1` [Sepiapterin]: under setting [1], the “Raw Signal” value is 58753. This molecule also displayed a Z-score under setting [2] of 0.5302.

As to `NCCc1c[nH]c2ccc(O)cc12` [Serotonin hydrochloride], the “Raw Signal” value under setting [1] is 60327. Moreover, the Z-score under setting [2] is given as 1.048.

Turning to `CC(C)COC(=O)OCN1C(=O)CN(CCN2CC(=O)N(COC(=O)OCC(C)C)C(=O)C2)CC1=O` [Sobuzoxane], under setting [3], the “Raw Signal” value is 54088. The Z-score under setting [4] is -0.3761.

On to `NC(=O)C(=O)O` [Sodium Oxamate], for which the “Raw Signal” value under setting [3] was 56283. This molecule also gave a Z-score under setting [5] of 0.3175.

In the case of `C[C@H](CCC(=O)NCCS(=O)(=O)O)[C@H]1CC[C@H]2[C@@H]3[C@H](O)C[C@@H]4C[C@H](O)CC[C@]4(C)[C@H]3C[C@H](O)[C@]12C` [Sodium Taurocholate], the “Raw Signal” value was 58351 and the Z-score is 0.07713.

For `NCCCCNCCCN` [Spermidine trihydrochloride], under setting [1], the “Raw Signal” value amounted to 60576. The Z-score under setting [2] was found to be 0.8844.

As for `NCCCNCCCCNCCCN` [Spermine tetrahydrochloride], the “Raw Signal” value under setting [6] amounted to 52988. In addition, under setting [7], the Z-score is on record as -0.5898.

Consider `CCCCCCCCCCCCC/C=C/[C@@H](O)[C@@H](N)CO` [Sphingosine], for which the “Raw Signal” value under setting [6] is listed as 64012. The molecule also returned a Z-score under setting [8] of 1.552.

For `O=C(CCCN1CCC2(CC1)C(=O)NCN2c1ccccc1)c1ccc(F)cc1` [Spiperone hydrochloride], the “Raw Signal” value under setting [6] was 52620. The Z-score under setting [7] is -0.6613.

For the molecule `CC(=O)S[C@@H]1CC2=CC(=O)CC[C@]2(C)[C@H]2CC[C@@]3(C)[C@@H](CC[C@@]34CCC(=O)O4)[C@H]12` [Spironolactone], under setting [6], the “Raw Signal” value was 50910. In addition, the Z-score under setting [7] is -0.9935.

Consider `O=C1NCN(c2ccccc2)C12CCN(CC1COc3ccccc3O1)CC2` (centres unmarked) [Spiroxatrine], for which the “Raw Signal” value under setting [3] was 55965. Besides, the Z-score under setting [5] is -0.01142.

With `C[N+](C)(C)CCOC(=O)CCC(=O)OCC[N+](C)(C)C` [Succinylcholine chloride], under setting [6], the “Raw Signal” value worked out at 51489. For the same molecule, under setting [7], the Z-score is listed as -0.881.

Take `Nc1ccc(S(=O)(=O)Nc2ccnn2-c2ccccc2)cc1` [Sulfaphenazole]: the “Raw Signal” value under setting [3] is listed as 54328. In addition, the Z-score under setting [4] is listed as -0.3295.

Consider `CC1=C(CC(=O)O)c2cc(F)ccc2/C1=C\c1ccc(S(C)(=O)=O)cc1` [Sulindac sulfone], for which the “Raw Signal” value under setting [3] amounted to 56423. Also, the Z-score under setting [5] amounted to 0.07756.

`CC1=C(CC(=O)O)c2cc(F)ccc2/C1=C\c1ccc([S+](C)[O-])cc1` (centres unmarked) [Sulindac]: the “Raw Signal” value under setting [6] was 51494. Further, the Z-score under setting [7] is listed as -0.8801.

Take `Cc1ccc(C(=O)Nc2ccc(S(=O)(=O)O)c3cc(S(=O)(=O)O)cc(S(=O)(=O)O)c23)cc1NC(=O)c1cccc(NC(=O)Nc2cccc(C(=O)Nc3cc(C(=O)Nc4ccc(S(=O)(=O)O)c5cc(S(=O)(=O)O)cc(S(=O)(=O)O)c45)ccc3C)c2)c1` [Suramin hexasodium]: the “Raw Signal” value under setting [6] is listed as 10286. For the same molecule, the Z-score under setting [7] is on record as -8.886.

For the molecule `COC(=O)c1c(-c2cc(OC)c(OC)c(OC)c2)c2ccnc(OCc3ncccn3)c2c(=O)n1Cc1ccnc(C)c1` [T-0156], under setting [6], the “Raw Signal” value was determined as 53574. Also, the Z-score under setting [7] is listed as -0.476.

Take `COC(=O)c1c(-c2cc(OC)c(OC)c(OC)c2)c2ccc(OCc3ccccn3)cc2c(=O)n1-c1ccc(N)cc1.O=S(=O)(O)O` [T-1032]: the “Raw Signal” value under setting [3] was 55393. Also, the Z-score under setting [4] was -0.1226.

As to `Clc1cnc(Oc2ccc(Oc3ncc(Cl)cc3Cl)cc2)c(Cl)c1` [TCPOBOP], the “Raw Signal” value under setting [3] came out at 54822. Also, under setting [4], the Z-score was -0.2335.

Turning to `CCSC(=N)Nc1ccc(C(F)(F)F)cc1.Cl` [TFPI hydrochloride], the “Raw Signal” value under setting [3] was determined as 53926. For the same molecule, under setting [4], the Z-score was -0.4076.

Regarding `Cl.O=c1[nH]oc2c1CCNC2` [THIP hydrochloride], the “Raw Signal” value under setting [1] was determined as 60339. Besides, under setting [2], the Z-score is listed as 0.8384.

As to `CCN(CC)CCCCCCCCOC(=O)c1cc(OC)c(OC)c(OC)c1.Cl` [TMB-8 hydrochloride], the “Raw Signal” value under setting [3] was 59541. Under setting [5], this molecule registered a Z-score of 0.2867.

For `CP(=O)(O)C1=CCNCC1` [TPMPA], the “Raw Signal” value under setting [1] stood at 59668. The Z-score under setting [2] was found to be 0.708.

Turning to `C/C(=C\c1ccc(C(=O)O)cc1)c1ccc2c(c1)C(C)(C)CCC2(C)C` [TTNPB], the “Raw Signal” value under setting [3] was 53849. For the same molecule, the Z-score under setting [4] is listed as -0.4225.

Turning to `CC/C(=C(\c1ccccc1)c1ccc(OCCN(C)C)cc1)c1ccccc1` [Tamoxifen citrate], the “Raw Signal” value under setting [1] stood at 60879. Besides, the Z-score under setting [2] worked out at 0.9433.

Take `NCCS(=O)(=O)O` [Taurine]: the “Raw Signal” value under setting [6] was found to be 52621. Under setting [7], the Z-score is recorded as -0.6611.

Turning to `CC(=O)O[C@H]1C(=O)[C@@]2(C)[C@H]([C@H](OC(=O)c3ccccc3)[C@]3(O)C[C@H](OC(=O)[C@H](O)[C@@H](NC(=O)c4ccccc4)c4ccccc4)C(C)=C1C3(C)C)[C@]1(OC(C)=O)CO[C@@H]1C[C@@H]2O` [Taxol], the “Raw Signal” value under setting [1] came out at 58493. In addition, under setting [2], the Z-score was found to be 0.4797.

As for `Cc1scc2c1N(C(=O)CN1CCN(C)CC1)c1ccccc1NC2=O` [Telenzepine dihydrochloride], the “Raw Signal” value under setting [1] worked out at 58050. This molecule came in with a Z-score under setting [2] of 0.3937.

As to `COc1cc2nc(N3CCN(C(=O)C4CCCO4)CC3)nc(N)c2cc1OC` (centres unmarked) [Terazosin hydrochloride], the “Raw Signal” value under setting [3] turned out to be 54152. Further, the Z-score under setting [4] is listed as -0.3637.

Regarding `CC(C)(C)NCC(O)c1cc(O)cc(O)c1.CC(C)(C)NCC(O)c1cc(O)cc(O)c1.O=S(=O)(O)O` (centres unmarked) [Terbutaline hemisulfate], the “Raw Signal” value under setting [1] came to 59192. For the same molecule, the Z-score under setting [2] is listed as 0.6155.

Take `CC(C)(C)c1ccc(C(O)CCCN2CCC(C(O)(c3ccccc3)c3ccccc3)CC2)cc1` (centres unmarked) [Terfenadine]: the “Raw Signal” value under setting [3] was found to be 53926. The Z-score under setting [4] was -0.4076.

Regarding `CCCCNc1ccc(C(=O)OCCN(C)C)cc1` [Tetracaine hydrochloride], the “Raw Signal” value under setting [3] was found to be 56522. In addition, the Z-score under setting [5] turned out to be 0.09679.

As for `CCCCCCCCCCCCCCSCC(=O)O` [Tetradecylthioacetic acid], the “Raw Signal” value under setting [3] is 56618. The molecule also gave a Z-score under setting [5] of 0.1154.

Regarding `CC[N+](CC)(CC)CC` [Tetraethylammonium chloride], the “Raw Signal” value is recorded as 56416 and the Z-score came to 0.0762.

Regarding `CCN(CC)C(=S)SSC(=S)N(CC)CC` [Tetraethylthiuram disulfide], the “Raw Signal” value under setting [3] is reported as 54661. Further, under setting [4], the Z-score is on record as -0.2648.

Turning to `c1ccc2c(c1)CCCC2C1=NCCN1` (centres unmarked) [Tetrahydrozoline hydrochloride], the “Raw Signal” value under setting [3] worked out at 57605. This molecule also displayed a Z-score under setting [5] of 0.3072.

With `CC(C)NP(=O)(NC(C)C)OP(=O)(NC(C)C)NC(C)C` [Tetraisopropyl pyrophosphoramide], the “Raw Signal” value under setting [3] was 57279. This molecule came in with a Z-score under setting [5] of 0.2439.

For `c1ccc(C2CN3CCSC3=N2)cc1` (centres unmarked) [Tetramisole hydrochloride], the “Raw Signal” value under setting [6] was 64300. The molecule further returned a Z-score under setting [8] of 1.608.

For `C/C=C(/C)C(=O)O[C@H]1C(C)=C2[C@H]([C@@H]1OC(=O)CCCCCCC)[C@@](C)(OC(C)=O)C[C@H](OC(=O)CCC)[C@@]1(O)[C@H]2OC(=O)[C@@]1(C)O` [Thapsigargin], under setting [3], the “Raw Signal” value is 56574. Under setting [5], this molecule showed a Z-score of 0.1069.

As for `Cn1cnc2c1c(=O)[nH]c(=O)n2C` [Theobromine], under setting [6], the “Raw Signal” value is recorded as 52921. Further, the Z-score under setting [7] is listed as -0.6028.

As to `Cn1c(=O)c2[nH]cnc2n(C)c1=O` [Theophylline], the “Raw Signal” value under setting [6] was found to be 53365. Further, the Z-score under setting [7] is recorded as -0.5166.

For the molecule `NC(=S)c1ccc[n+]([C@@H]2O[C@@H](COP(=O)([O-])OP(=O)(O)OC[C@H]3O[C@@H](n4cnc5c(N)ncnc54)C(OP(=O)([O-])O)[C@H]3O)C(O)C2O)c1.[Na+]` (some centres unmarked) [Thio-NADP sodium], the “Raw Signal” value under setting [3] is on record as 56703. The Z-score under setting [5] was 0.132.

For the molecule `C=C/C(C)=C/[C@@]1(C)SC(=O)C(C)=C1O` [Thiolactomycin], the “Raw Signal” value under setting [3] is on record as 51778. Also, the Z-score under setting [4] is reported as -0.4395.

In the case of `S=C(NC1CCCCC1)N1CCC(c2cnc[nH]2)CC1` [Thioperamide maleate], under setting [3], the “Raw Signal” value was 54981. Besides, under setting [4], the Z-score is on record as -0.2026.

`CSc1ccc2c(c1)N(CCC1CCCCN1C)c1ccccc1S2` (centres unmarked) [Thioridazine hydrochloride]: under setting [3], the “Raw Signal” value is 57676. Further, the Z-score under setting [5] stood at 0.321.

As to `CN1CCN(CC/C=C2/c3ccccc3Sc3ccc(S(=O)(=O)N(C)C)cc32)CC1.Cl` [Thiothixene hydrochloride], the “Raw Signal” value under setting [6] was 52919. The Z-score under setting [7] is reported as -0.6032.

On to `CCN(CC)CCNC(=O)c1cc(S(C)(=O)=O)ccc1OC` [Tiapride hydrochloride], for which, under setting [1], the “Raw Signal” value is 58277. The Z-score under setting [2] was 0.4378.

On to `Cc1ccc(S(=O)(=O)NC(=O)NN2CCCCCC2)cc1` [Tolazamide], for which the “Raw Signal” value under setting [6] was determined as 64192. Under setting [8], this molecule displayed a Z-score of 1.587.

As for `CCCCNC(=O)NS(=O)(=O)c1ccc(C)cc1` [Tolbutamide], the “Raw Signal” value under setting [6] is on record as 65444. Also, the Z-score under setting [8] is given as 1.83.

For `CNCC[C@@H](Oc1ccccc1C)c1ccccc1` [Tomoxetine], the “Raw Signal” value under setting [1] is reported as 58582. Besides, the Z-score under setting [2] was found to be 0.497.

For `CCCCNc1c(C(=O)OCC)c(C)nc2c1cnn2CC` [Tracazolate], under setting [1], the “Raw Signal” value was found to be 59222. The Z-score under setting [2] stood at 0.6213.

Take `COc1ccc(/C=C/C(=O)Nc2ccccc2C(=O)O)cc1OC` [Tranilast]: the “Raw Signal” value under setting [6] came to 68948. Further, under setting [8], the Z-score was 2.511.
